Measurements from patent publication US12558329B2 (New York University, priority 2021, dated 2026).
Entries after “also recorded” stand apart in the source; their conditions may differ.

Columns and labels:
human cells = test: 18O2-GASSP labelling of human cells, untargeted polar metabolomics, with or without IOX1; assay type: cell-based; conditions: A498 and SKNDZ cells, 3%, 1%, 0.2% 18O2, IOX1 24 hours
Experimental: To map the molecular fate of O2 in metabolic pathways in living cells, GASSP was used to carry out ^18O2 labelling in cell lines of different tissue origins at ^18O2 concentrations that represented physiological (3%), hypoxic (1%), and severely hypoxic (0.2%) oxygen tensions found in tissues and tumours^7. At the end of each run, polar metabolites were extracted and untargeted polar metabolomics using liquid chromatography-high resolution mass spectrometry (LC-MS) were carried out to identify metabolites labeled with ^18O.
A list of unique features identified by untargeted metabolomics that were >0.25% (natural abundance of ^18O is 0.2%) labelled by ^18O atoms in each cell line at each oxygen tension was generated. In addition, background signal was controlled by requiring that ^18O labeled peaks had to have a signal that was two-fold greater than naturally occurring isotopes found in non-labelled (^16O) metabolite cell extracts. To determine the proportion of unique ^18O labelled features that were due to dioxygenase activity, cells were treated with a pan-dioxygenase inhibitor (IOX1) at concentrations that inhibit iron-dependent dioxygenases, such as the HIF1α prolyl hydroxylases (FIGS. 5E-5F) and identified ^18O labelled polar metabolites. This list of ^18O metabolites was generated by identifying all features in the unlabelled samples, filtering these features against blank samples to remove background peaks, and calculating the fractional ^18O labelling with the assumption that a metabolite would have no more than three oxygen atoms labelled, followed by manual curation of labelled features (FIG. 1B and FIG. 5G). […] These ^18O-labelled features were termed the oxy-metabolome.
To determine the identities of the labeled metabolites, the list of ^18O labelled features was annotated to their corresponding unlabelled metabolites using retention time matching, tandem mass spectrometry (MS2) fragmentation patterns, and database searching.
(§1) All steps involved in setting up labelling with ^18O2 were performed at room temperature and inside a chemical fume hood. The procedure may vary depending on the type and number of tissue culture plates in the chamber and the amount of media in the plates. Users must test the system by using ^16O2:CO2:N2 or other unlabelled gases to optimize conditions for their needs and avoid consumption of costly labelled gases. Cells were treated with or without 5 μM MG132, 500 μM IOX1, 250 μM DFO, or 70 μM ascorbate, before placing tissue culture plates into the modular incubator chamber (MIC) containing a wireless oxygen sensor and a 15 cm dish of water to maintain humidity. Next, the clamps were closed to form an air-tight seal between the lid and platform of the MIC. […] N2 flushing was repeated for a total of three times, or until the sensor in the chamber stabilized at 0% O2 for 10 minutes.

MIAPACA2 cells = test: 18O2-GASSP labelling of MIAPACA2 cells treated with MG132, IOX1, DFO or ascorbate; assay type: cell-based, human
Experimental: As additional controls, MIAPACA2 cells were treated with an iron chelator (DFO, FIG. 5E-5F), a proteasome inhibitor (MG132) to induce proteotoxic stress, and physiological levels of ascorbate, an antioxidant, to determine the effects of ROS on ^18O-labelling. Labelling of ^18O γ-butyrobetaine was blocked by IOX1 and DFO, consistent with the fact that trimethyllysine hydroxylase (TMLH) is an iron-dependent dioxygenase (FIGS. 7A-7D). […] Total levels of ^18O labelled methionine sulfoxide increased upon MG132 treatment and decreased following ascorbate treatment (FIGS. 7I-7M)^10.
as §1
Next, the inlet valve was opened and the ^18O2:5% CO2:N2 gaseous mixture was flushed into the system at a rate of 2.5 L/min. Subsequently, the outlet valve was immediately opened to allow gas flow out of the chamber, and to release the pressure in the system. The chamber was injected with the ^18O2:5% CO2:N2 gaseous mixture for 1 minute before the inlet and outlet valves were closed simultaneously. The chamber was allowed to equilibrate for 5 minutes. This process was repeated seven times, or until the desired oxygen concentration was reached and was stable. For 3%, 1%, and 0.2% ^18O2 labelling studies, the chamber was infused with 5%:5%:90%, 1.5%:5%:93.5%, and 0.5%:5%:94.5% ^18O2:CO2:N2, respectively. The ^18O2-infused MIC was then placed in a 37° C., 5% CO2 tissue culture incubator for 24 hours. The oxygen concentration in the chamber was monitored regularly. Oxygen measurements after 20 hours was not feasible due to the battery life of the sensor. At the end of the experiment, the chamber was opened inside a chemical fume hood before metabolite extraction.
For metabolomics, briefly, cells were washed in 4° C. 0.9% saline and metabolites were extracted with 46% methanol:23% H2O:[…] chloroform that contained a labelled amino acid standard mix (MSK-A2-1.2, Cambridge Isotope Laboratories, Inc.). Enzymatic assay samples were extracted using 80% methanol: 20% H2O that contained labelled amino acid standards. Extracts were placed into 1.5 mL Eppendorf tubes, vortexed at 4° C. for 10 min and centrifuged at 4° C. for 10 min at 17,200×g in a microcentrifuge. The aqueous phase was transferred to vials for GC-MS or Eppendorf tubes for LC-MS. Polar samples were evaporated in a SpeedVac and samples were resolved by GC-MS or LC-MS. Lipid samples were dried using a stream of N2 (for ^18O labelling studies) or air. Metabolite and lipid extracts were submitted to the NYULMC Metabolomics Core Resource Laboratory.
For polar metabolomics, the LC column was a Millipore ZIC-pHILIC (2.1×150 […], 5 μm bead size) coupled to a Dionex UltiMate 3000 system. The column oven temperature was held at 25° C. The flow rate was 100 μL/min, and the injection volume was 1 μL. Buffer A was 10 mM ammonium carbonate in water, pH 9, and Buffer B was neat acetonitrile. The gradient profile was 80-20% B (0-30 min), 20-80% B (30-31 min), and 80-80% B (31-42 min). MS Analyses were carried out on a Thermo Q Exactive HF mass spectrometer using a heated electrospray ionization (HESI) source. […]

Structure (SMILES): O=C(O)c1ccc(O)c2ncccc12 [IOX1]
- 4-HMA 18O labeling (human cells): decreased
- 18O labelling of methionine (MIAPACA2 cells; 3%, 1%, 0.2% 18O2, 24 hours): sensitive; also recorded: blocked
- 18O labelling of γ-butyrobetaine (MIAPACA2 cells; 3%, 1%, 0.2% 18O2, 24 hours): sensitive; also recorded: blocked
- 18O labelling of 4-HMA (MIAPACA2 cells; MIAPACA2, 3%, 1%, 0.2% 18O2, 24 hours, 500 μM IOX1, 250 μM DFO): sensitive; also recorded: significantly attenuated
- 4-HMA levels (MIAPACA2 cells; MIAPACA2, 18O2 labelling, 24 hours, 500 μM IOX1, 250 μM DFO, 70 μM ascorbate): significantly attenuated
